# Laboratory results: patent publication US12403154B2, “Administration of sting agonist and checkpoint inhibitors” (Takeda Pharmaceutical Company Limited, priority 2019, dated 2025)
# Columns and labels:
# Format in all cases: in vivo
# [1] = test system: L5178-R mouse lymphoma cell line; experiment: L5178-R mouse syngeneic tumor model (Study 2); conditions: vs PBS, time-to-progression (tumor 1000 mm^3), Compound No. 14 0.25 mg/kg IV Day 0, 3, 6, anti-mPD-1 10 mg/kg IP Day 0, 3, 6
# Procedure: L5178-R Study 2: L5178-R is a mouse lymphoma cell line. L5178-R mouse syngeneic tumor model was generated by subcutaneous inoculation with 0.2×10^6 L5178-R cells (cell suspension) in approximately 12 weeks old female DBA/2 mice (Vital River Laboratory Animal Technology Co., Ltd., Beijing, China) in the flank. When the mean tumor volume reached approximately 65 mm^3, the animals were randomized into one vehicle control and four treatment groups (n=10/group). Mice were then dosed with PBS or Compound No. 14 or anti-mouse PD-1 antibody or Compound No. 14 plus anti-mouse PD-1 antibody at 10 mg/kg (Q3D×3 & QW×3) over a 10-day period. Tumor growth and body weight were measured twice per week during the treatment and post-treatment periods, and mice were humanely euthanized once they had reached their humane endpoint. […]
# (§1) Tumors were measured twice weekly using vernier calipers. Tumor volumes were calculated using standard equation: V=W^2×L/2, where V=volume, W=width, and L=length for the tumor. […] Tumor size and body weight were measured twice a week for the duration of the study. […]
# (§2) After the transformation, linear interpolation was used to estimate the time (in days) since randomization each mouse's tumor volume reaches 1000 mm^3. […] In case of a mouse's tumor having not reached 1000 mm^3 at the end of study, the last day the mouse was on study was recorded and right-censored. […]
# [2] = test system: RM-1 mouse prostate carcinoma cell line; experiment: RM-1 mouse syngeneic tumor model (Study 4); conditions: RM-1 model; vs PBS; time-to-progression (tumor 1000 mm^3); Compound No. 14 0.25 mg/kg IV Day 0, 3, 6; anti-mPD-1 10 mg/kg IP Day 0, 3, 6, 13
# Procedure: RM-1 Study 4: RM-1 is a mouse prostate carcinoma cell line. RM-1 mouse syngeneic tumor model was generated by subcutaneous inoculation with 0.8×10^6 RM-1 cells (cell suspension) in 10 weeks old female C57BL/6 mice (Vital River Laboratory Animal Technology Co., Ltd., Beijing, China) in the flank. When the mean tumor volume reached approximately 60 mm^3, the animals were randomized into one vehicle control and four treatment groups (n=10/group). Mice were then dosed with PBS or Compound No. 14 or anti-mouse PD-1 antibody or Compound No. 14 plus anti-mouse PD-1 antibody over a 19-day period. Tumor growth and body weight were measured twice per week during the treatment and post-treatment periods, and mice were humanely euthanized once they had reached their humane endpoint. […]
# as §1, §2
# [3] = test system: WEHI-3 mouse myelomonocytic leukemia cell line; experiment: WEHI-3 mouse syngeneic tumor model (Study 3); conditions: WEHI3 model; vs PBS; time-to-progression (tumor 1000 mm^3); Compound No. 14 0.25 mg/kg IV Day 0, 3, 6; anti-mPD-1 10 mg/kg IP Day 0, 3, 6, 13
# Procedure: WEHI-3 Study 3: WEHI-3 is a mouse myelomonocytic leukemia cell line. WEHI-3 mouse syngeneic tumor model was generated by subcutaneous inoculation with 0.1×10^6 WEHI-3 cells (cell suspension) in approximately 11 weeks old female BALB/c mice (Vital River Laboratory Animal Technology Co., Ltd., Beijing, China) in the flank. When the mean tumor volume reached approximately 60 mm^3, the animals were randomized into one vehicle control and four treatment groups (n=10/group). Mice were then dosed with PBS or Compound No. 14 or anti-mouse PD-1 antibody or Compound No. 14 plus anti-mouse PD-1 antibody over a 21-day period. Tumor growth and body weight were measured twice per week during the treatment and post-treatment periods, and mice were humanely euthanized once they had reached their humane endpoint. […]
# as §1, §2
# [4] = test system: A20 mouse B-cell lymphoma cell line; experiment: A20 mouse syngeneic tumor model (Study 1)
# Procedure: A20 Study 1: A20 is a mouse B-cell lymphoma cell line. A20 mouse syngeneic tumor model was generated by subcutaneous inoculation with 0.4×10^6 A20 cells (cell suspension) in approximately 9 weeks old female BALB/c mice (Vital River Laboratory Animal Technology Co., Ltd., Beijing, China) in the flank. When the mean tumor volume reached approximately 55 mm^3, the animals were randomized into one vehicle control and three treatment groups (n=10/group). Mice were then dosed with PBS or Compound No. 14 or anti-mouse PD-1 antibody or Compound No. 14 plus anti-mouse PD-1 antibody over a 31-day period. Tumor growth and body weight were measured twice per week during the treatment and post-treatment periods, and mice were humanely euthanized once they had reached their humane endpoint. […]
# as §1, §2
# [5] = test system: L1210 mouse leukemia cell line; experiment: L1210 mouse syngeneic tumor model (Study 5); conditions: vs PBS, time-to-progression (tumor 1000 mm^3), Compound No. 14 0.25 mg/kg IV Day 0, 3, 6, anti-mPD-1 10 mg/kg IP Day 0, 3, 6, 13
# Procedure: L1210 Study 5: L1210 is a mouse leukemia cell line. L1210 mouse syngeneic tumor model was generated by subcutaneous inoculation with 0.02×10^6 L1210 cells (cell suspension) in approximately 11 weeks old female DBA/2 mice (Vital River Laboratory Animal Technology Co., Ltd., Beijing, China) in the flank. When the mean tumor volume reached approximately 50 mm^3, the animals were randomized into one vehicle control and four treatment groups (n=10/group). Mice were then dosed with PBS or Compound No. 14 or anti-mouse PD-1 antibody or Compound No. 14 plus anti-mouse PD-1 antibody over a 15-day period. Tumor growth and body weight were measured twice per week during the treatment and post-treatment periods, and mice were humanely euthanized once they had reached their humane endpoint. […]
# as §1, §2
smiles,measurement,setting,value
Nc1ncnc2c1ncn2[C@@H]1O[C@@H]2COP(=O)(S)O[C@@H]3[C@H](O)[C@@H](COP(=O)(S)O[C@H]2[C@H]1F)O[C@H]3n1cc(F)c2c(=O)[nH]cnc21 (stereo partly drawn) [Compound No. 14],HR (Weibull),[1],0.544
same,HR (Weibull),[2],0.425
same,HR (Weibull),[3],0.0487
same,HR (Weibull),"[4]; A20 model, vs PBS, time-to-progression (tumor 1000 mm^3), Compound No. 14 0.25 mg/kg IV Day 0, 3, 6, anti-mPD-1 10 mg/kg IP Day 0, 3, 6, 13, 20, 27",0.104
same,complete responses,"[4]; A20 study, 31 days, n=10/group",one
same,HR (Weibull),[5],0.118
